Results on four cell lines are retold here after the supplement of paper PMC10307832.

Holding throughout (assay): relative viability (nuclei count vs DMSO), 5 days (fraction); higher = more cells survive
Compound in the test “AZD8055 + Luminespib”: COc1ccc(-c2ccc3c(N4CCOC[C@@H]4C)nc(N4CCOC[C@@H]4C)nc3n2)cc1CO [AZD8055] + CCNC(=O)c1noc(-c2cc(C(C)C)c(O)cc2O)c1-c1ccc(CN2CCOCC2)cc1 [Luminespib] (partner 0.01 µM)
An outline of the steps:
(§1)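 Lung cancer cell lines in 1536-well plates were dosed by pin tool the day after seeding, either with one drug alone or with a fixed anchor-drug dose plus five library-drug doses (not always all listed) in √10 steps. After 5 days, cells were fixed and their nuclei stained in one step (final 0.05% Triton X-100, 1% formaldehyde, 1 ug/ml Hoechst), then counted on 4× images. Relative viability is the nuclei count in treated wells divided by that in vehicle wells. Values are medians of duplicate plates.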

Compound in the test “AZD8055 + Lapatinib”: COc1ccc(-c2ccc3c(N4CCOC[C@@H]4C)nc(N4CCOC[C@@H]4C)nc3n2)cc1CO [AZD8055] + CS(=O)(=O)CCNCc1ccc(-c2ccc3ncnc(Nc4ccc(OCc5cccc(F)c5)c(Cl)c4)c3c2)o1 [Lapatinib] (partner 2 µM)
In outline: as §1

Compound in the test “AZD8055 + Decitabine”: COc1ccc(-c2ccc3c(N4CCOC[C@@H]4C)nc(N4CCOC[C@@H]4C)nc3n2)cc1CO [AZD8055] + Nc1ncn([C@H]2C[C@H](O)[C@@H](CO)O2)c(=O)n1 [Decitabine] (partner 2 µM)
An outline of the steps: as §1

Compound in the test “AZD8055 + Olaparib”: COc1ccc(-c2ccc3c(N4CCOC[C@@H]4C)nc(N4CCOC[C@@H]4C)nc3n2)cc1CO [AZD8055] + O=C(c1cc(Cc2n[nH]c(=O)c3ccccc23)ccc1F)N1CCN(C(=O)C2CC2)CC1 [Olaparib] (partner 8 µM)
An outline of the steps: as §1

Take COR-L23: the relative viability stood at 0.773 in the test with AZD8055 + Luminespib (first compound 0.01 µM); 0.625 in the test with AZD8055 + Luminespib (first compound 0.03162 µM); 0.381 in the test with AZD8055 + Luminespib (first compound 0.1 µM); 0.118 with AZD8055 + Luminespib (first compound 0.3162 µM); 0.137 with AZD8055 + Luminespib (first compound 1 µM); 1.36 with AZD8055 + Lapatinib (first compound 0.01 µM). The relative viability with AZD8055 + Lapatinib (first compound 0.03162 µM) was 0.804; with AZD8055 + Lapatinib (first compound 0.1 µM), 0.741; with AZD8055 + Lapatinib (first compound 0.3162 µM) it was 0.33; in the test with AZD8055 + Lapatinib (first compound 1 µM), 0.219; with AZD8055 + Decitabine (first compound 0.01 µM) it was 0.401; with AZD8055 + Decitabine (first compound 0.03162 µM), 0.298. In addition, the relative viability was 0.305 with AZD8055 + Decitabine (first compound 0.1 µM); 0.209 with AZD8055 + Decitabine (first compound 0.3162 µM); 0.191 with AZD8055 + Decitabine (first compound 1 µM); 0.408 with AZD8055 + Olaparib (first compound 0.01 µM); 0.42 in the test with AZD8055 + Olaparib (first compound 0.03162 µM); 0.277 in the test with AZD8055 + Olaparib (first compound 0.1 µM). The relative viability with AZD8055 + Olaparib (first compound 0.3162 µM) turned out to be 0.143; in the test with AZD8055 + Olaparib (first compound 1 µM), 0.141.

With NCI-H1944, the relative viability was found to be 0.866 with AZD8055 + Luminespib (first compound 0.01 µM); 0.573 with AZD8055 + Luminespib (first compound 0.03162 µM); 0.483 with AZD8055 + Luminespib (first compound 0.1 µM); 0.277 with AZD8055 + Luminespib (first compound 0.3162 µM); 0.222 with AZD8055 + Luminespib (first compound 1 µM); 0.766 with AZD8055 + Lapatinib (first compound 0.01 µM). Further, the relative viability in the test with AZD8055 + Lapatinib (first compound 0.03162 µM) came to 0.655; with AZD8055 + Lapatinib (first compound 0.1 µM), 0.615; with AZD8055 + Lapatinib (first compound 0.3162 µM) it was 0.367; with AZD8055 + Lapatinib (first compound 1 µM) it was 0.336; in the test with AZD8055 + Decitabine (first compound 0.01 µM), 0.429; with AZD8055 + Decitabine (first compound 0.03162 µM) it was 0.349. Besides, the relative viability came to 0.402 with AZD8055 + Decitabine (first compound 0.1 µM); 0.319 in the test with AZD8055 + Decitabine (first compound 0.3162 µM); 0.226 in the test with AZD8055 + Decitabine (first compound 1 µM); 0.41 with AZD8055 + Olaparib (first compound 0.01 µM); 0.428 in the test with AZD8055 + Olaparib (first compound 0.03162 µM); 0.393 with AZD8055 + Olaparib (first compound 0.1 µM). The values for the relative viability in the test with AZD8055 + Olaparib (first compound 0.3162 µM) and with AZD8055 + Olaparib (first compound 1 µM) were 0.254 and 0.259, respectively.

Regarding NCI-H2405, the relative viability in the test with AZD8055 + Luminespib (first compound 0.01 µM) amounted to 0.757; with AZD8055 + Luminespib (first compound 0.03162 µM), 0.564; with AZD8055 + Luminespib (first compound 0.1 µM) it was 0.536; with AZD8055 + Luminespib (first compound 0.3162 µM) it was 0.289; with AZD8055 + Luminespib (first compound 1 µM), 0.279; with AZD8055 + Lapatinib (first compound 0.01 µM), 1.03. In addition, the relative viability in the test with AZD8055 + Lapatinib (first compound 0.03162 µM) stood at 0.955; with AZD8055 + Lapatinib (first compound 0.1 µM) it was 0.858; with AZD8055 + Lapatinib (first compound 0.3162 µM) it was 0.395; in the test with AZD8055 + Lapatinib (first compound 1 µM), 0.292; with AZD8055 + Decitabine (first compound 0.01 µM) it was 0.79; in the test with AZD8055 + Decitabine (first compound 0.03162 µM) it was 0.715. Moreover, the relative viability with AZD8055 + Decitabine (first compound 0.1 µM) worked out at 0.593; in the test with AZD8055 + Decitabine (first compound 0.3162 µM), 0.363; in the test with AZD8055 + Decitabine (first compound 1 µM), 0.339; in the test with AZD8055 + Olaparib (first compound 0.01 µM) it was 0.904; with AZD8055 + Olaparib (first compound 0.03162 µM), 0.851; in the test with AZD8055 + Olaparib (first compound 0.1 µM), 0.772. For the same cell line, the relative viability with AZD8055 + Olaparib (first compound 0.3162 µM) was determined as 0.359; in the test with AZD8055 + Olaparib (first compound 1 µM), 0.35.

SK-LU-1: the relative viability came to 0.205 with AZD8055 + Luminespib (first compound 0.01 µM); 0.185 with AZD8055 + Luminespib (first compound 0.03162 µM); 0.159 in the test with AZD8055 + Luminespib (first compound 0.1 µM); 0.145 in the test with AZD8055 + Luminespib (first compound 0.3162 µM); 0.154 with AZD8055 + Luminespib (first compound 1 µM); 0.866 with AZD8055 + Lapatinib (first compound 0.01 µM). Also, the relative viability in the test with AZD8055 + Lapatinib (first compound 0.03162 µM) is 0.761; with AZD8055 + Lapatinib (first compound 0.1 µM), 0.487; in the test with AZD8055 + Lapatinib (first compound 0.3162 µM) it was 0.376; in the test with AZD8055 + Lapatinib (first compound 1 µM), 0.332; with AZD8055 + Decitabine (first compound 0.01 µM), 0.64; with AZD8055 + Decitabine (first compound 0.03162 µM) it was 0.547. For the same cell line, the relative viability in the test with AZD8055 + Decitabine (first compound 0.1 µM) was 0.568; with AZD8055 + Decitabine (first compound 0.3162 µM), 0.422; with AZD8055 + Decitabine (first compound 1 µM), 0.343; in the test with AZD8055 + Olaparib (first compound 0.01 µM), 0.442; with AZD8055 + Olaparib (first compound 0.03162 µM), 0.412; with AZD8055 + Olaparib (first compound 0.1 µM) it was 0.345. In addition, the relative viability in the test with AZD8055 + Olaparib (first compound 0.3162 µM) is 0.305; with AZD8055 + Olaparib (first compound 1 µM) it was 0.254.
